Source: patent US8263631B2, “Anti-cancer pharmaceutical compositions and methods for treating patients with cancer” (Daiichi Sankyo Company, Limited, priority 2006, dated 2012)
Marks after values point to notes of the source that are not given here.

Columns and labels:
[1] = tested on: MKN74, MKN28, ZR-75-1, SBC-1, AsPC-1, DU-145, ACHN, D341 Med, A-204, RD-ES, SW872, U266 cancer cell lines; assay: Evaluation of cancer cell proliferation inhibitory activity (sulforhodamine B staining, absorbance A490); type: cell-based, human; conditions: 0.1, 1 or 10 μM (AsPC-1: 0.05, 0.5 or 5 μM), 7 days (U266: 4 days); all cancer cell lines, FIGS. 1-3
Text: Human gastric cancer cell line (MKN74, MKN28) purchased from Immuno-Biological Laboratories Co., Ltd., human breast cancer cell line (ZR-75-1), small-cell lung cancer line (SBC-1), pancreatic cancer cell line (AsPC-1), prostate cancer cell line (DU-145), kidney cancer cell line (ACHN), medulloblastoma line (D341 Med), human sarcoma cell line (rhabdomyosarcoma line A-204, Ewing's sarcoma line RD-ES, liposarcoma line SW872) and multiple myeloma line (U266) that were purchased from […] were used in the test. […]
To the control group was added only DMSO so that its concentration became 0.1%. […] 10 mM Tris was added at […] to each well in which cancer cells were immobilized and stained, and absorbance A490 of each well was measured using MICROPLATE READER Model 3550 (Bio-Rad Laboratories, Inc.). […]
In each of the graphs, the longitudinal axis represents the absorbance [%], and the horizontal axis represents the concentration of Compound X [μM].

[2] = tested on: human leukemia cell line HL-60; assay: Cell proliferation inhibitory activity against human leukemia cell (Cell Titer 96); type: cell-based; conditions: 5 days
[3] = tested on: human leukemia cell line THP-1; assay: as above; type: cell-based; conditions: 5 days
[4] = tested on: human colon cancer line WiDr; assay: In vivo anti-tumor activity against human colon cancer cells (WiDr tumor-bearing nude mouse); conditions: once a day, 5 times per week
Text: In the experiment, human colon cancer line WiDr (purchased from American Type Culture Collection), in which it was confirmed that no mouse pathogenic microorganism was detected by quarantine, was transplanted to a subcutaneous axillary portion of a nude mouse BALB/cA Jcl-nu (CLEA Japan, Inc.), to subculture a tumor. The tumor was cut into small pieces of 5 mm size, and was transplanted to a right subcutaneous axillary portion of a BALB/cA Jcl-nu mouse by using a troker (CLEA Japan, Inc.). The required amounts of Compounds X and Y were each weighed and were dissolved in N,N-dimethylacetamide (DMA: Wako Pure Chemical Industries, Ltd.), and 5% Emulphor 620 (GAF Corporation)-saline (Otsuka Pharmaceutical Co., Ltd.) was then added to the mixtures in small amounts, so that the concentrations of the compounds were each adjusted to 0.2, 1 or 5 mg/mL. Here, DMA was made to have a final concentration of 2.5%. […] Twice a week, the major axis and the minor axis of the transplanted tumor were measured using digital micrometer calipers (MAX-CAL MAX-15: Nihon Sokutei Kougu Kabusiki Kaisha), and tumor proliferation inhibitory activity was obtained from the following calculation formula and expressed as the tumor volume inhibition rate. Average tumor volume in each test group (mm^3)=½×(minor axis)^2 (mm^2)×(major axis) (mm) Tumor volume inhibition rate (%)={1−(average tumor volume of drug administration group/average tumor volume of drug non-administration group)}×100
Evaluation of anti-tumor activity of each of the drug administration groups was determined by the tumor volume inhibition rate. In addition, a statistical difference test was determined by conducting Students' t test with respect to the tumor the volume of drug non-administration control group and the drug administration group 38 days after transplantation.

[5] = tested on: human non-small-cell lung cancer line A549; assay: In vitro cell proliferation inhibitory activity, combination with VEGFR and Raf kinase inhibitor; type: cell-based; conditions: Compound X 10 μM alone, A549, 6 days
Description: Human non-small-cell lung cancer line A549 cells were inoculated on a 96-well plate at 5×10^2 cells/well, and at the same time, agents of various concentrations dissolved in DMSO were added so that the concentration of DMSO became 0.1%. […] After addition of the drugs, the cells were cultivated in the presence of 5% carbon dioxide at 37° C. for 6 days. Then, Cell Titer 96 Aqueous One Solution Reagent (Promega Corp.) was added at 40 μl/well each, and then absorbance A490 of each well was measured using MICROPLATE READER (Bio-Rad Laboratories, Inc.).

[6] = tested on: human kidney cancer line SN12-PM6; assay: In vivo anti-tumor activity against human kidney cancer (SN12-PM6 tumor-bearing nude mouse); conditions: 0.1 mL per 10 g orally, once a day, 5 times per week, day 10 to 56
Text: In the experiment, human kidney cancer line SN12-PM6 (provided by Professor Seiji Naito of Kyushu University), in which it was confirmed that no mouse pathogenic microorganism was detected by quarantine, was transplanted to a subcutaneous axillary portion of a nude mouse BALB/cA Jcl-nu (CLEA Japan, Inc.), to subculture a tumor. The tumor was cut into small pieces in a size of 5 mm, and transplanted to a right subcutaneous axillary portion of a BALE/cA Jcl-nu mouse by using a troker (CLEA Japan, Inc.). […] Subsequently, distilled water (Otsuka Pharmaceutical Factory, Inc.) was added so that the final concentrations of ethanol and cremophor became each 12.5%. […] Twice a week, the major axis and the minor axis of the transplanted tumor were measured using digital micrometer calipers (MAX-CAL MAX-15: Nihon Sokutei Kougu Kabusikikaisha), and tumor proliferation inhibitory activity was obtained from the following calculation formula and expressed as the tumor volume inhibition rate. […]
Evaluation of anti-tumor activity for each of the drug administration group was determined by the tumor volume inhibition rate. In addition, a statistical difference test was determined by conducting Students' t test with respect to the tumor volumes of the drug non-administration control group and the drug administration group 59 days after transplantation.

[7] = tested on: human non-small-cell lung cancer line A549; assay: In vitro cell proliferation inhibitory activity, combination with EGFR inhibitor; conditions: Compound X 10 μM alone, A549, 7 days
Description: Human non-small-cell lung cancer line A549 cells (purchased from American Tissue Culture Collection) were cultured using 10% fetal bovine serum (Hyclone Laboratories, Inc.)-RPMI (Invitrogen Corporation). A549 cells were inoculated on a 96-well plate at 5×10^2 cells/well, and at the same time, the agents of various concentrations dissolved in DMSO were added so that the concentration of DMSO became 0.1%. […] After the addition of the drugs, cells were cultivated in the presence of 5% carbon dioxide at 37° C. for 7 days. Then, Cell Titer 96 Aqueous One Solution Reagent (Promega Corp.) was added at 40 μl/well each, followed by 2 hours of cultivation. Absorbance A490 of each well was measured using MICROPLATE READER (Bio-Rad Laboratories, Inc.).

[8] = tested on: human non-small-cell lung cancer line A549; assay: In vivo anti-tumor activity against non-small-cell lung cancer (A549 tumor-bearing nude mouse); conditions: Compound X alone, 1 mg/mL, 0.1 mL per 10 g orally, once a day, 5 times per week, day 14 to 60
Description: In the experiment, human non-small-cell lung cancer line A549 (purchased from American Type Culture Collection), in which it was confirmed that no mouse pathogenic microorganism was detected by quarantine, was transplanted to a subcutaneous axillary portion of a nude mouse BALB/cA Jcl-nu (CLEA Japan, Inc.), to subculture a tumor. The tumor was cut into small pieces of 5 mm size, and transplanted to a right subcutaneous axillary portion of a BALB/cA Jcl-nu mouse by using a troker (CLEA Japan, Inc.). […] Twice a week, the major axis and the minor axis of the transplanted tumor were measured using digital micrometer calipers (MAX-CAL MAX-15: Nihon Sokutei Kougu Kabusiki Kaisha), and tumor proliferation inhibitory activity was obtained from the following calculation formula and expressed as the tumor volume inhibition rate. […]
Evaluation of anti-tumor activity for each of the drug administration groups was determined by the tumor volume inhibition rate. In addition, a statistical difference test was determined by conducting Students' t test with respect to tumor volume of the drug non-administration control group and the drug administration group 63 days after transplantation.

[9] = 2 mg/kg orally, determined on Day 35, Exp. 2
[10] = 10 mg/kg orally, determined on Day 35, Exp. 2
[11] = 50 mg/kg orally, determined on Day 35, Exp. 1
[12] = 50 mg/kg orally, determined on Day 35, Exp. 2

SMILES | cancer cell proliferation inhibitory activity (absorbance % of DMSO control) [1] | HL-60 Proliferation inhibition rate ([2]; Compound X 10 μM) [%] | HL-60 Proliferation inhibition rate ([2]; Compound X 25 μM) | HL-60 Proliferation inhibition rate ([2]; Compound X 50 μM) | THP-1 Proliferation inhibition rate ([3]; Compound X 10 μM) [%] | THP-1 Proliferation inhibition rate ([3]; Compound X 25 μM) [%] | THP-1 Proliferation inhibition rate ([3]; Compound X 50 μM) | Tumor volume inhibition rate [4, 9] | Tumor volume inhibition rate [4, 10] | Tumor volume inhibition rate [4, 11] | Tumor volume inhibition rate [4, 12] | Proliferation inhibition rate [5] [%] | Tumor volume inhibition rate ([6]; Compound X alone, 0.3 mg/mL) [%] | Cell proliferation inhibition rate [7] [%] | Tumor volume inhibition rate [8] [%] | Tumor volume inhibition rate ([6]; sorafenib alone, 10 mg/mL) [%]
Cc1cc(Oc2ccc3nc(COc4ccc(CC5SC(=O)NC5=O)cc4)n(C)c3c2)cc(C)c1N.Cl.Cl (centres unmarked) [Compound X, 5-(4-(6-(4-Amino-3,5-dimethyl-phenoxy)-1-methyl-1H-benzimidazol-2-ylmethoxy)-benzyl)-thiazolidine-2,4-dione.dihydrochloride] | significant proliferation inhibitory activity | 23 | 27* % | 45** % | 7 | 20 | 48** % | 31* % | 35* % | 49* % | 38* % | 15 | 37 | 12 | 33 | –
CNC(=O)c1cc(Oc2ccc(NC(=O)Nc3ccc(Cl)c(C(F)(F)F)c3)cc2)ccn1 [Sorafenib, sorafenib, reference compound] | – | – | – | – | – | – | – | – | – | – | – | – | – | – | – | 43
CC(C)Nc1cccc(Oc2ccc3nc(COc4ccc(CC5SC(=O)NC5=O)cc4)n(C)c3c2)c1.Cl.Cl (centres unmarked) [Compound Y, 5-(4-(6-(3-Isopropylamino-phenoxy)-1-methyl-1H-benzimidazol-2-ylmethoxy)-benzyl)-thiazolidine-2,4-dione.dihydrochloride] | – | – | – | – | – | – | – | 26* % | 32* % | 35* % | 40* % | – | – | – | – | –
